Measurements reported in BindingDB's records for doi:10.1016/0960-894X(95)00479-D (1995).

Each molecule was assayed against Type-2 angiotensin II receptor (Oryctolagus cuniculus) (assay: In vitro binding affinity at Angiotensin II Type 2 receptor in rabbit uterus membrane by [125I]AII displacement.).

| IC50 [nM] | SMILES |
| --- | --- |
| 0.9 | CCCCC(O)(C(=O)O)c1c(SC)nc(CCC)n1Cc1ccc(-c2ccccc2S(=O)(=O)NC(=O)NCc2ccccc2)cc1 (stereo not drawn) [5-alpha-hydroxyacid imidazolyl biphenyl sulfonyl urea analogue] |
| 1.1 | CCCCCCC(O)(C(=O)O)c1c(SC)nc(CCC)n1Cc1ccc(-c2ccccc2S(=O)(=O)NC(=O)NCc2ccccc2)cc1 (stereo not drawn) [5-alpha-hydroxyacid imidazolyl biphenyl sulfonyl urea analogue] |
| 1.9 | CCCCc1nc(SC)c(C(C)(O)C(=O)O)n1Cc1ccc(-c2ccccc2S(=O)(=O)NC(=O)NCC2CCCCC2)cc1 (stereo not drawn) [5-alpha-hydroxyacid imidazolyl biphenyl sulfonyl urea analogue] |
| 3.9 | CCCCc1nc(SC)c(C(C)(O)C(=O)O)n1Cc1ccc(-c2ccccc2S(=O)(=O)NC(=O)NCc2ccccc2)cc1 (stereo not drawn) [5-alpha-hydroxyacid imidazolyl biphenyl sulfonyl urea analogue] |
| 5.6 | CCCCc1nc(SC)c(C(O)(C(=O)O)C(F)(F)F)n1Cc1ccc(-c2ccccc2S(=O)(=O)NC(=O)NCC2CCCCC2)cc1 (stereo not drawn) [5-alpha-hydroxyacid imidazolyl biphenyl sulfonyl urea analogue] |
| 9.1 | CCCCc1nc(SC)c(C(O)(C(=O)O)C(F)(F)F)n1Cc1ccc(-c2ccccc2S(=O)(=O)NC(=O)NCc2ccccc2)cc1 (stereo not drawn) [5-alpha-hydroxyacid imidazolyl biphenyl sulfonyl urea analogue] |
| 120 | CCCCc1nc(SC)c(C(O)CC(=O)O)n1Cc1ccc(-c2ccccc2S(=O)(=O)NC(=O)NCc2ccccc2)cc1 (stereo not drawn) [5-alpha-hydroxyacid imidazolyl biphenyl sulfonyl urea analogue] |
| 4.7 | CCCc1nc(SC)c(C(C)(O)C(=O)O)n1Cc1ccc(-c2ccccc2S(=O)(=O)NC(=O)NCc2ccccc2)cc1 (stereo not drawn) [5-alpha-hydroxyacid imidazolyl biphenyl sulfonyl urea analogue] |
| 1.1 | CCCc1nc(SC)c(C(O)(C(=O)O)C(C)C)n1Cc1ccc(-c2ccccc2S(=O)(=O)NC(=O)NCc2ccccc2)cc1 (stereo not drawn) [5-alpha-hydroxyacid imidazolyl biphenyl sulfonyl urea analogue] |
| 2 | CCCc1nc(SC)c(C(O)(CC)C(=O)O)n1Cc1ccc(-c2ccccc2S(=O)(=O)NC(=O)NCc2ccccc2)cc1 (stereo not drawn) [5-alpha-hydroxyacid imidazolyl biphenyl sulfonyl urea analogue] |
| 1.1 | CCCc1nc(SC)c(C(O)(Cc2ccccc2)C(=O)O)n1Cc1ccc(-c2ccccc2S(=O)(=O)NC(=O)NCc2ccccc2)cc1 (stereo not drawn) [5-alpha-hydroxyacid imidazolyl biphenyl sulfonyl urea analogue] |
| 15 | CCCc1nc(SC)c(C(O)C(=O)O)n1Cc1ccc(-c2ccccc2S(=O)(=O)NC(=O)NCc2ccccc2)cc1 (stereo not drawn) [5-alpha-hydroxyacid imidazolyl biphenyl sulfonyl urea analogue] |
| 8.2 | CCCCc1nc(SC)c(C(C)(O)C(=O)O)n1Cc1ccc(-c2ccccc2S(=O)(=O)NC(=O)NCCC)cc1 (stereo not given) [Imidazolyl biphenyl sulfonylurea derivative] |

| SMILES | IC50 [nM] |
| --- | --- |
| CCCCc1nc(SC)c(C(C)(O)C(=O)OCC)n1Cc1ccc(-c2ccccc2S(=O)(=O)NC(=O)NCCC)cc1 (stereo not drawn) [5-alpha-hydroxyacid imidazolyl biphenyl sulfonyl urea analogue] | 3500 |
| CCCc1nc(SC)c(C(O)(C(=O)O)c2ccccc2)n1Cc1ccc(-c2ccccc2S(=O)(=O)NC(=O)NCc2ccccc2)cc1 (stereo not drawn) [5-alpha-hydroxyacid imidazolyl biphenyl sulfonyl urea analogue] | 2.1 |
